Experimental data taken from patent US20250230155A1 (Vanderbilt University, priority 2021, published 2025).

Biological target: T1, human mAChR M4 (Homo sapiens, UniProt P08173)
T1 construct: expressed in transfected cells
T1 sequence (P08173 1-479): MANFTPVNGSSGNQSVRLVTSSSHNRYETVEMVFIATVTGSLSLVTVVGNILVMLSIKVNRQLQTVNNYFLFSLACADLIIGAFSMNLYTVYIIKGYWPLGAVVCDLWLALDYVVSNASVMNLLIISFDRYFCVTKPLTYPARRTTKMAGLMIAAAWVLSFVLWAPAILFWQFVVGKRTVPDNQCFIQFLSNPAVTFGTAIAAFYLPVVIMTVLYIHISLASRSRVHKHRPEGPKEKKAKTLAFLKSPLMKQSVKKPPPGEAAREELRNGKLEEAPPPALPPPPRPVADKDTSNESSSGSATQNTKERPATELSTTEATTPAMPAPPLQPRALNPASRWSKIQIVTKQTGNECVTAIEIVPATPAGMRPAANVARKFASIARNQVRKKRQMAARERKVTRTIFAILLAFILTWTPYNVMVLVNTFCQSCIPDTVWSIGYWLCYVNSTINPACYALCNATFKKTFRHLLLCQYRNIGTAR
Assay: mAChR M4 cell-based functional assay (calcium mobilization, CHO-K1 hM4-Gqi5 cells)
Settings: for EC50: positive allosteric modulator activity, increase in the EC20 acetylcholine response, CHO-K1 hM4-Gqi5 cells, read-out: Human M4 EC50; for Emax at 30 µM: CHO-K1, % ACh maximum at 30 μM, human M4
How it was run: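 CHO-K1 cells stably expressing human M4 with chimeric Gqi5, loaded with Fluo-4 AM; compounds given as 11-point 1:3 curves and calcium flux read on FDSS at 1 Hz. Acetylcholine EC20 added at 144 s, EC80 at 230 s; agonist, PAM (EC20 potentiation) and antagonist (EC80 inhibition) EC50/Emax from four-parameter fits.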

EC50	Emax at 30 µM	Structure (SMILES)	Emax (CHO-K1)
2470 nM	80%	Cc1cc(C(=O)NC23CC(F)(C2)C3)cnc1N1CCc2ncc(-c3cn(C)nc3C)cc2C1 [Example 477, 6-(3-(1,3-dimethyl-1H-pyrazol-4-yl)-7,8-dihydro-1,6-naphthyridin-6(5H)-yl)-N-(3-fluorobicyclo[1.1.1]pentan-1-yl)-5-methylnicotinamide]	–
470 nM	74%	Cc1cc(C#N)cnc1N1CCc2ncc(-c3ccc(N(C)C)nc3)cc2C1 [Example 318, 6-(3-(6-(dimethylamino)pyridin-3-yl)-7,8-dihydro-1,6-naphthyridin-6(5H)-yl)-5-methylnicotinonitrile]	–
1480 nM	–	FC(F)(F)c1cnc2c(c1)CN(c1nc(C3CC3)nc3c1CCC3)CC2 [compound 265, 6-(2-cyclopropyl-6,7-dihydro-5H-cyclopenta[d]pyrimidin-4-yl)-3-(trifluoromethyl)-5,6,7,8-tetrahydro-1,6-naphthyridine]	–
995 nM	92%	Cc1ccc(F)c(Nc2cnc3c(c2)CN(c2ncc(C#N)cc2C)CC3)c1 [compound 115, 6-[3-(2-fluoro-5-methyl-anilino)-7,8-dihydro-5H-1,6-naphthyridin-6-yl]-5-methyl-pyridine-3-carbonitrile]	–
321 nM	98%	Cc1c(C#N)nnc(N2CCc3ncc(N4CCC(C)n5nccc54)cc3C2)c1C (stereo not drawn) [Example 364, 4,5-dimethyl-6-(3-(7-methyl-6,7-dihydropyrazolo[1,5-a]pyrimidin-4(5H)-yl)-7,8-dihydro-1,6-naphthyridin-6(5H)-yl)pyridazine-3-carbonitrile]	–
4080 nM	103%	Cc1cc(C(=O)N2CCCn3nccc32)nnc1N1CCc2ncc(C(F)(F)F)cc2C1 [Example 503, (6,7-dihydropyrazolo[1,5-a]pyrimidin-4(5H)-yl)(5-methyl-6-(3-(trifluoromethyl)-7,8-dihydro-1,6-naphthyridin-6(5H)-yl)pyridazin-3-yl)methanone]	–
2620 nM	67%	Cc1ncc(CNC(=O)c2cnc(N3CCc4ncccc4C3)c(C)c2)s1 [compound 127, 6-(7,8-dihydro-5H-1,6-naphthyridin-6-yl)-5-methyl-N-[(2-methylthiazol-5-yl)methyl]pyridine-3-carboxamide]	–
600 nM	90%	Cc1cc(C#N)cnc1N1CCc2ncc(Oc3ccc(F)cc3F)cc2C1 [Example 310, 6-(3-(2,4-difluorophenoxy)-7,8-dihydro-1,6-naphthyridin-6(5H)-yl)-5-methylnicotinonitrile]	–
611 nM	91%	Cc1cc(C#N)nnc1N1Cc2cc(N3CCOCC3)cnc2C(C)C1 (single isomer, unassigned) [Example 407, 5-methyl-6-(8-methyl-3-morpholino-7,8-dihydro-1,6-naphthyridin-6(5H)-yl)pyridazine-3-carbonitrile]	–
322 nM	93%	Cc1cc(C(=O)N2CC(C)(O)C2)nnc1N1CCc2ncc(CC(F)(F)F)cc2C1 [Example 588, (3-hydroxy-3-methylazetidin-1-yl)(5-methyl-6-(3-(2,2,2-trifluoroethyl)-7,8-dihydro-1,6-naphthyridin-6(5H)-yl)pyridazin-3-yl)methanone]	–
90.5 nM	94%	Cc1cc(C#N)cnc1N1CCc2ncc(Nc3ccccc3F)cc2C1 [Example 7]	–
158 nM	95%	Cc1cc(C#N)cnc1N1CCc2ncc(-c3cn(C)nc3C)cc2C1 [compound 103, 6-[3-(1,3-dimethylpyrazol-4-yl)-7,8-dihydro-5H-1,6-naphthyridin-6-yl]-5-methyl-pyridine-3-carbonitrile]	–
366 nM	80%	Cc1nc(C)c(C)c(N2CCc3ncc(-c4ccc(N5CCN(C)CC5)nc4)cc3C2)n1 [compound 233, 3-(6-(4-methylpiperazin-1-yl)pyridin-3-yl)-6-(2,5,6-trimethylpyrimidin-4-yl)-5,6,7,8-tetrahydro-1,6-naphthyridine]	–
1040 nM	86%	Cc1ccncc1-c1cnc2c(c1)CN(c1nnc(C#N)cc1C)CC2 [Example 322, 5-methyl-6-(3-(4-methylpyridin-3-yl)-7,8-dihydro-1,6-naphthyridin-6(5H)-yl)pyridazine-3-carbonitrile]	–
88 nM	129%	Cc1cc(C#N)nnc1N1CCc2ncc(N3CCCn4nccc43)cc2C1 [Example 360, 6-(3-(6,7-dihydropyrazolo[1,5-a]pyrimidin-4(5H)-yl)-7,8-dihydro-1,6-naphthyridin-6(5H)-yl)-5-methylpyridazine-3-carbonitrile]	–
145 nM	111%	Cc1cc(C#N)cnc1N1CCc2ncc(C(F)(F)F)cc2C1 [compound 165, 5-methyl-6-[3-(trifluoromethyl)-7,8-dihydro-5H-1,6-naphthyridin-6-yl]pyridine-3-carbonitrile]	–
5570 nM	67%	Cc1c(Cl)nc(C2CC2)nc1N1CCc2ncc(Nc3cccc(F)c3F)cc2C1 [compound 91, 6-(6-chloro-2-cyclopropyl-5-methyl-pyrimidin-4-yl)-N-(2,3-difluorophenyl)-7,8-dihydro-5H-1,6-naphthyridin-3-amine]	–
25 nM	102%	Cc1nc(Cl)c(C)c(N2CCc3ncc(N4CCCn5nccc54)cc3C2)n1 [compound 243, 6-(6-chloro-2,5-dimethylpyrimidin-4-yl)-3-(6,7-dihydropyrazolo[1,5-a]pyrimidin-4(5H)-yl)-5,6,7,8-tetrahydro-1,6-naphthyridine]	–
44 nM	101%	Cc1c(C(=O)NCc2cncs2)nnc(N2CCc3ncc(C(F)(F)F)cc3C2)c1C [Example 465, 4,5-dimethyl-N-(thiazol-5-ylmethyl)-6-(3-(trifluoromethyl)-7,8-dihydro-1,6-naphthyridin-6(5H)-yl)pyridazine-3-carboxamide]	–
2810 nM	84%	Cc1cc(C(=O)N(C)Cc2ccncc2)nnc1N1CCc2ncc(C(F)(F)F)cc2C1 [Example 506, N,5-dimethyl-N-(pyridin-4-ylmethyl)-6-(3-(trifluoromethyl)-7,8-dihydro-1,6-naphthyridin-6(5H)-yl)pyridazine-3-carboxamide]	–
1360 nM	70%	Cc1cc(C(=O)NCc2cncc(Br)c2)cnc1N1CCc2ncccc2C1 [compound 139, N-[(5-bromo-3-pyridyl)methyl]-6-(7,8-dihydro-5H-1,6-naphthyridin-6-yl)-5-methyl-pyridine-3-carboxamide]	–
1740 nM	64%	Cc1cc(C(=O)NC2CC3(COC3)C2)cnc1N1CCc2ncc(-c3cn(C)nc3C)cc2C1 [Example 475, 6-(3-(1,3-dimethyl-1H-pyrazol-4-yl)-7,8-dihydro-1,6-naphthyridin-6(5H)-yl)-5-methyl-N-(2-oxaspiro[3.3]heptan-6-yl)nicotinamide]	–
405 nM	94%	Cc1c(C#N)nnc(N2CCc3ncc(C(F)F)cc3C2)c1C [Example 308, 6-(3-(difluoromethyl)-7,8-dihydro-1,6-naphthyridin-6(5H)-yl)-4,5-dimethylpyridazine-3-carbonitrile]	–
108 nM	75%	[2H]C([2H])([2H])c1cnc2c(c1)CN(c1nnc(C(=O)NC3(c4cccnc4)CC3)cc1C)CC2 [Example 580, 5-methyl-6-(3-(methyl-d3)-7,8-dihydro-1,6-naphthyridin-6(5H)-yl)-N-(1-(pyridin-3-yl)cyclopropyl)pyridazine-3-carboxamide]	–
305 nM	64%	COc1cnc(Cl)c(-c2cnc3c(c2)CN(c2nnc(C#N)c(C)c2C)CC3)c1 [compound 52, 6-[3-(2-chloro-5-methoxy-3-pyridyl)-7,8-dihydro-5H-1,6-naphthyridin-6-yl]-4,5-dimethyl-pyridazine-3-carbonitrile]	–
11 nM	82%	Cc1cc(C(=O)NC2(C#N)CC2)nnc1N1CCc2ncc(N3CCCn4nccc43)cc2C1 [Example 525, N-(1-cyanocyclopropyl)-6-(3-(6,7-dihydropyrazolo[1,5-a]pyrimidin-4(5H)-yl)-7,8-dihydro-1,6-naphthyridin-6(5H)-yl)-5-methylpyridazine-3-carboxamide]	–
318 nM	97%	Cc1cc(C#N)cnc1N1CCc2ncc(-c3ccc(C4CC4)nc3)cc2C1 [compound 186, 6-[3-(6-cyclopropyl-3-pyridyl)-7,8-dihydro-5H-1,6-naphthyridin-6-yl]-5-methyl-pyridine-3-carbonitrile]	–
28 nM	97%	[2H]C1([2H])Cc2ncc(Nc3cc(C)ncc3F)cc2C([2H])([2H])N1c1nnc(C#N)cc1C [Example 603, 6-(3-((5-fluoro-2-methylpyridin-4-yl)amino)-7,8-dihydro-1,6-naphthyridin-6(5H)-yl-5,5,7,7-d4)-5-methylpyridazine-3-carbonitrile]	–

Structure (SMILES)	EC50	Emax at 30 µM	Emax (CHO-K1)
Cc1nc(Cl)c(C)c(N2Cc3cc(N)cnc3C(C)(C)C2)n1 [compound 219, 6-(6-chloro-2,5-dimethylpyrimidin-4-yl)-8,8-dimethyl-5,6,7,8-tetrahydro-1,6-naphthyridin-3-amine]	≥ 10000 nM	–	37%
